Results reported in the supplement of paper PMC11061612.

Assays:
[1] = system: RPMI-8402 (T-Lymphoblastic Leukemia); assay: Bliss excess, mean over the matrix (fraction); higher = more synergy
Procedure, shortened: (§1)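 Cell lines in DMEM/F12 or RPMI with 10% FBS were plated in 1536-well plates, held 24 hours at 37°C, 5% CO2, then given two-drug dose matrices for 72 hours (DMSO typically 0.2%). Viability was read by CellTiter-Glo 2.0 luminescence and scaled as inhibition from 0 (vehicle wells) to 1 (blank wells). Combination Emax is the second-highest inhibition in the matrix; Bliss excess is observed combination effect minus expected EA + EB − EA·EB, EA and EB being single-agent effects.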

A375 (Melanoma) = assay: as above
Procedure, shortened: as §1

[2] = system: NCI-H1648 (Lung Adenocarcinoma); assay: combination Emax (second highest fraction inhibited in the dose matrix, 72 h); higher = more inhibition; extreme values may be limits of the assay
Procedure, shortened: as §1

[3] = system: L-363 (Plasma Cell Myeloma); assay: as above
Procedure, shortened: as §1

[4] = system: MDA-MB-175-VII (Breast Carcinoma); assay: as above
Procedure, shortened: as §1

[5] = system: NCI-H2023 (Non-Small Cell Lung Carcinoma); assay: as above
Procedure, shortened: as §1

GCIY (Gastric Carcinoma) = assay: as above
Procedure, shortened: as §1

[6] = system: SCC90 (Head and Neck Carcinoma); assay: Bliss excess, mean over the matrix (fraction); higher = more synergy
Procedure, shortened: as §1

[7] = system: JJN-3 (Plasma Cell Myeloma); assay: as above
Procedure, shortened: as §1

[8] = system: SCC90 (Head and Neck Carcinoma); assay: combination Emax (second highest fraction inhibited in the dose matrix, 72 h); higher = more inhibition; extreme values may be limits of the assay
Procedure, shortened: as §1

[9] = system: Daudi (Burkitt's Lymphoma); assay: Bliss excess, mean over the matrix (fraction); higher = more synergy
Procedure, shortened: as §1

[10] = system: NCI-H1048 (Small Cell Lung Carcinoma); assay: as above
Procedure, shortened: as §1

[11] = system: NCI-H2170 (Squamous Cell Lung Carcinoma); assay: combination Emax (second highest fraction inhibited in the dose matrix, 72 h); higher = more inhibition; extreme values may be limits of the assay
Procedure, shortened: as §1

[12] = system: NCI-H1048 (Small Cell Lung Carcinoma); assay: as above
Procedure, shortened: as §1
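For Bliss excess, mean over the matrix in this document: after 72 h of two-drug dosing.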

Structure (SMILES)	Bliss excess [1]	Bliss excess (A375 (Melanoma))	combination Emax [2]	combination Emax [3]	combination Emax [4]	combination Emax [5]	combination Emax (GCIY (Gastric Carcinoma))	Bliss excess [6]	Bliss excess [7]	combination Emax [8]	Bliss excess [9]	Bliss excess [10]	combination Emax [11]	combination Emax [12]
C=CCn1c(=O)c2cnc(Nc3ccc(N4CCN(C)CC4)cc3)nc2n1-c1cccc(C(C)(C)O)n1 [AZD1775] + CCc1c2c(nc3ccc(O)cc13)-c1cc3c(c(=O)n1C2)COC(=O)[C@]3(O)CC [SN-38] (first compound max 1 µM, partner max 0.3 µM)	0.0012	-0.0409	0.842	0.903	0.659	0.775	0.756							
Cc1c2c(nn1C)CSCc1cc(n(C)n1)CSc1cc(c3ccccc3c1)OCCCc1c(C(=O)O)n(C)c3c-2c(Cl)ccc13 [AZD5991] + CS(=O)(=O)CCNCc1ccc(-c2ccc3ncnc(Nc4ccc(OCc5cccc(F)c5)c(Cl)c4)c3c2)o1 [Lapatinib] (first compound max 1 µM, 7x7, partner max 10 µM)	0.0115	0.0109	0.895	0.993	0.973	0.284	0.447							
O=C(c1cc(Cc2n[nH]c(=O)c3ccccc23)ccc1F)N1CCN(C(=O)C2CC2)CC1 [Olaparib] + CN(CC[C@H](CSC1=CC=CC=C1)NC2=C(C=C(C=C2)S(=O)(=O)NC(=O)C3=CC=C(C=C3)N4CCC(CC4)[C@H](C5=CC=CC=C5C6=CC=C(C=C6)Cl)O)S(=O)(=O)C(F)(F)F)CCO [AZD4320] (first compound max 10 µM, 7x7, partner max 1 µM)	0.0077	-0.0091	0.359	0.403	0.389	0.165	0.643							
CN(CCO)CC[C@H](CSc1ccccc1)Nc1ccc(S(=O)(=O)NC(=O)c2ccc(N3CCC([C@@H](O)c4ccccc4-c4ccc(Cl)cc4)CC3)cc2)cc1S(=O)(=O)C(F)(F)F [AZD4320] + CS(=O)(=O)CCNCc1ccc(-c2ccc3ncnc(Nc4ccc(OCc5cccc(F)c5)c(Cl)c4)c3c2)o1 [Lapatinib] (first compound max 1 µM, 7x7, partner max 10 µM)	0.0949	0.0275	0.952	0.154	1	0.301	0.956							
Cc1c2c(nn1C)CSCc1cc(n(C)n1)CSc1cc(c3ccccc3c1)OCCCc1c(C(=O)O)n(C)c3c-2c(Cl)ccc13 [AZD5991] + CC(=O)O[C@H]1C(=O)[C@@]2(C)[C@H]([C@H](OC(=O)c3ccccc3)[C@]3(O)C[C@H](OC(=O)[C@H](O)[C@@H](NC(=O)c4ccccc4)c4ccccc4)C(C)=C1C3(C)C)[C@]1(OC(C)=O)CO[C@@H]1C[C@@H]2O [Paclitaxel] (first compound max 1 µM, 7x7, partner max 3 µM)	0.0139	-0.0149	0.929	1	0.505	0.537	0.686							
CC1(C)CCC(CN2CCN(c3ccc(C(=O)NS(=O)(=O)c4ccc(NCC5CCOCC5)c([N+](=O)[O-])c4)c(Oc4cnc5[nH]ccc5c4)c3)CC2)=C(c2ccc(Cl)cc2)C1 [Venetoclax] + CS(=O)(=O)CCNCc1ccc(-c2ccc3ncnc(Nc4ccc(OCc5cccc(F)c5)c(Cl)c4)c3c2)o1 [Lapatinib] (first compound max 1 µM, 7x7, partner max 10 µM)	-0.0163	-0.0207	0.624	0.133	0.937	0.195	0.276							
C[C@@H]1COCCN1c1cc(C2([S@](C)(=N)=O)CC2)nc(-c2ccnc3[nH]ccc23)n1 [AZD6738] + Nc1ccn([C@@H]2O[C@H](CO)[C@@H](O)C2(F)F)c(=O)n1 [Gemcitabine] (first compound max 10 µM, 7x7, partner max 0.3 µM)	0.0319	0.0602	0.725	0.941	0.529	0.684	0.774							
C=CCn1c(=O)c2cnc(Nc3ccc(N4CCN(C)CC4)cc3)nc2n1-c1cccc(C(C)(C)O)n1 [AZD1775] + Nc1ccn([C@@H]2O[C@H](CO)[C@@H](O)C2(F)F)c(=O)n1 [Gemcitabine] (first compound max 1 µM, partner max 0.3 µM)	0.0141	0.0519	0.643	0.983	0.456	0.656	0.764							
Cc1nc(-c2cn3c(n2)-c2ccc(-c4cnn(C(C)(C)C(N)=O)c4)cc2OCC3)n(C(C)C)n1 [Taselisib] + O=C(Nc1ccc2[nH]nc(-c3ccncc3)c2c1)[C@@H]1CCN(CC(=O)N2CCN(c3ccc(-c4ncccn4)cc3)CC2)C1 [SCH772984] (first compound max 10 µM, 7x7, partner max 5 µM)	0.0802	0.133	1	0.63	1	0.665	0.888							
Cc1c2c(nn1C)CSCc1cc(n(C)n1)CSc1cc(c3ccccc3c1)OCCCc1c(C(=O)O)n(C)c3c-2c(Cl)ccc13 [AZD5991] + Nc1ccn([C@@H]2O[C@H](CO)[C@@H](O)C2(F)F)c(=O)n1 [Gemcitabine] (first compound max 1 µM, 7x7, partner max 0.3 µM)	0.0264	0.0115	0.5	0.999	0.48	0.612	0.649							
O=C(c1cc(Cc2n[nH]c(=O)c3ccccc23)ccc1F)N1CCN(C(=O)C2CC2)CC1 [Olaparib] + Cc1c2c(nn1C)CSCc1cc(n(C)n1)CSc1cc(c3ccccc3c1)OCCCc1c(C(=O)O)n(C)c3c-2c(Cl)ccc13 [AZD5991] (first compound max 10 µM, 7x7, partner max 1 µM)	-0.0419	-0.0264	0.384	0.989	0.281	0.12	0.181							
C[C@@H](Nc1cc(F)cc(F)c1)c1cc(C(=O)N(C)C)cc2c(=O)cc(N3CCOCC3)oc12 [AZD8186] + C1CN(CCC1(C(=O)N[C@@H](CCO)C2=CC=C(C=C2)Cl)N)C3=NC=NC4=C3C=CN4 [AZD5363] (first compound max 10 µM, 7x7, partner max 10 µM)	-0.0783	0.011	0.707	0.318	0.573	0.333	0.743							
O=C(c1cc(Cc2n[nH]c(=O)c3ccccc23)ccc1F)N1CCN(C(=O)C2CC2)CC1 [Olaparib] + COc1nnc2ccc(N3CCC(c4ccc(OCCN5CCN(C)C(=O)[C@H]5C)cc4)CC3)nn12 [AZD5153] (first compound max 10 µM, 7x7, partner max 1 µM)	-0.0277	-0.0229	0.684	0.468	0.316	0.344	0.487							
CS(=O)(=O)CCNCc1ccc(-c2ccc3ncnc(Nc4ccc(OCc5cccc(F)c5)c(Cl)c4)c3c2)o1 [Lapatinib] + NC1(c2ccc(-c3nc4ccn5c(=O)[nH]nc5c4cc3-c3ccccc3)cc2)CCC1 [MK-2206] (first compound max 10 µM, 7x7, partner max 10 µM)	0.0064	-0.0031	0.99	0.912	1	0.637	0.934	0.0358	0.0508	0.962				
CCc1c2c(nc3ccc(O)cc13)-c1cc3c(c(=O)n1C2)COC(=O)[C@]3(O)CC [SN-38] + O=C(c1cc(Cc2n[nH]c(=O)c3ccccc23)ccc1F)N1CCN(C(=O)C2CC2)CC1 [Olaparib] (first compound max 0.3 µM, 7x7, partner max 10 µM)	0.0767	0.0588	0.915	0.421	0.649	0.857	0.779	0.0728	0.0187	0.632	0.122	0.0934	0.969	0.987
C[C@@H](Nc1cc(F)cc(F)c1)c1cc(C(=O)N(C)C)cc2c(=O)cc(N3CCOCC3)oc12 [AZD8186] + CC(=O)c1c(C)c2cnc(Nc3ccc(N4CCNCC4)cn3)nc2n(C2CCCC2)c1=O [Palbociclib] (first compound max 10 µM, 7x7, partner max 10 µM)	0.0013	0.0781	0.579	0.737	0.456	0.399	0.662							
C[C@@H](Oc1cc(-c2cnn(C3CCNCC3)c2)cnc1N)c1c(Cl)ccc(F)c1Cl [Crizotinib] + Cn1cnc2c(F)c(Nc3ccc(Br)cc3Cl)c(C(=O)NOCCO)cc21 [Selumetinib] (first compound max 10 µM, 7x7, partner max 10 µM)	-0.0606	0.0035	0.58	0.871	0.267	0.57	0.46							
CS(=O)(=O)CCNCc1ccc(-c2ccc3ncnc(Nc4ccc(OCc5cccc(F)c5)c(Cl)c4)c3c2)o1 [Lapatinib] + Cn1cnc2c(F)c(Nc3ccc(Br)cc3Cl)c(C(=O)NOCCO)cc21 [Selumetinib] (first compound max 10 µM, 7x7, partner max 10 µM)	-0.031	-0.0348	0.764	0.104	0.993	0.297	0.543							
